As for `Cc1nc(N2CCCC2=O)sc1C(=O)NCc1ccccc1` [Example 1, N-benzyl-4-methyl-2-(2-oxopyrrolidin-1-yl)thiazole-5-carboxamide], the melting point (as a rule, the temperature, or range, at which the solid turns liquid) is 222 to 224 °C.
Next, `Cc1nc(N2CCCCC2=O)sc1C(=O)NCc1ccccc1` [Example 1.2, N-benzyl-4-methyl-2-(2-oxopiperidin-1-yl)thiazole-5-carboxamide]: 175 to 176 °C; `Cc1nc(N2CCC(Cc3ccc(C(F)(F)F)cc3)C2=O)sc1C(=O)NCc1ccc(F)cc1` (stereo not shown) [Example 2, N-(4-fluorobenzyl)-4-methyl-2-(2-oxo-3-(4-(trifluoromethyl)benzyl)pyrrolidin-1-yl)thiazole-5-carboxamide]: 175 to 176 °C.
Next, `Cc1nc(N2CCC(Cc3ccc(F)cc3)C2=O)sc1C(=O)NCc1ccc(F)cc1` (stereo not shown) [Example 2.1, N-(4-fluorobenzyl)-2-(3-(4-fluorobenzyl)-2-oxopyrrolidin-1-yl)-4-methylthiazole-5-carboxamide]: 196 to 197 °C; `Cc1nc(N2CCC(Cc3ccc(OC(F)F)cc3)C2=O)sc1C(=O)NCc1ccc(F)cc1` (stereo not shown) [Example 2.2, 2-(3-(4-(difluoromethoxy)benzyl)-2-oxopyrrolidin-1-yl)-N-(4-fluorobenzyl)-4-methylthiazole-5-carboxamide]: 143 to 145 °C.
Next, `Cc1nc(N2CCC(Cc3ccc(OC(F)(F)F)cc3)C2=O)sc1C(=O)NCc1ccc(F)cc1` (stereo not shown) [Example 2.3, N-(4-fluorobenzyl)-4-methyl-2-(2-oxo-3-(4-(trifluoromethoxy)benzyl)pyrrolidin-1-yl)thiazole-5-carboxamide]: 165 to 166 °C; `Cc1nc(N2CCC(Cc3ccc(C(F)(F)F)cc3)C2=O)sc1C(=O)NCc1ccccc1` (stereo not shown) [Example 2.4, N-benzyl-4-methyl-2-(2-oxo-3-(4-(trifluoromethyl)benzyl)pyrrolidin-1-yl)thiazole-5-carboxamide]: 174 to 175 °C; `Cc1nc(N2CCC(Cc3ccc(OC(F)F)cc3)C2=O)sc1C(=O)NCc1ccccc1` (stereo not shown) [Example 2.5, N-benzyl-2-(3-(4-(difluoromethoxy)benzyl)-2-oxopyrrolidin-1-yl)-4-methylthiazole-5-carboxamide]: 132 to 133 °C.
`Cc1nc(N2CCCC(Cc3ccc(C(F)(F)F)cc3)C2=O)sc1C(=O)NCc1ccccc1` (stereo not shown) [Example 2.6, N-benzyl-4-methyl-2-(2-oxo-3-(4-(trifluoromethyl)benzyl)piperidin-1-yl)thiazole-5-carboxamide] displayed a melting point of 217 to 218 °C.
Next, `Cc1ccc(CC2CCCN(c3nc(C)c(C(=O)NCc4ccccc4)s3)C2=O)cc1` (stereo not shown) [Example 2.7, N-benzyl-4-methyl-2-(3-(4-methylbenzyl)-2-oxopiperidin-1-yl)thiazole-5-carboxamide]: 110 to 113 °C; `Cc1nc(N2CCCC(Cc3cccc(F)c3)C2=O)sc1C(=O)NCc1ccccc1` (stereo not shown) [Example 2.8, N-benzyl-2-(3-(3-fluorobenzyl)-2-oxopiperidin-1-yl)-4-methylthiazole-5-carboxamide]: 170 to 171 °C; `COc1ccc(CC2CCCN(c3nc(C)c(C(=O)NCc4ccccc4)s3)C2=O)cc1` (stereo not shown) [Example 2.9, N-benzyl-2-(3-(4-methoxybenzyl)-2-oxopiperidin-1-yl)-4-methylthiazole-5-carboxamide]: 116 to 118 °C.
`Cc1nc(N2CCCC(Cc3cc(F)ccc3F)C2=O)sc1C(=O)NCc1ccccc1` (stereo not shown) [Example 2.10, N-benzyl-2-(3-(2,5-difluorobenzyl)-2-oxopiperidin-1-yl)-4-methylthiazole-5-carboxamide] had a melting point of 144 to 145 °C.
Under `Cc1nc(N2CCCC(Cc3ccccc3)C2=O)sc1C(=O)NCc1ccccc1` (stereo not shown) [Example 2.11, N-benzyl-2-(3-benzyl-2-oxopiperidin-1-yl)-4-methylthiazole-5-carboxamide] stands 162 to 164 °C.
Under `Cc1nc(N2CCCC(Cc3ccc(F)cc3)C2=O)sc1C(=O)NCc1ccccc1` (stereo not shown) [Example 2.12, N-benzyl-2-(3-(4-fluorobenzyl)-2-oxopiperidin-1-yl)-4-methylthiazole-5-carboxamide] stands 154 to 155 °C; under `Cc1nc(N2CCCC(Cc3ccc(F)cc3)C2=O)sc1C(=O)NCc1cccc(F)c1` (stereo not shown) [Example 2.13, N-(3-fluorobenzyl)-2-(3-(4-fluorobenzyl)-2-oxopiperidin-1-yl)-4-methylthiazole-5-carboxamide], 173 to 175 °C.
Under `Cc1nc(N2CCCC(Cc3ccc(C(F)(F)F)cc3)C2=O)sc1C(=O)NCc1cccc(F)c1` (stereo not shown) [Example 2.14, N-(3-fluorobenzyl)-4-methyl-2-(2-oxo-3-(4-(trifluoromethyl)benzyl)piperidin-1-yl)thiazole-5-carboxamide] stands 177 to 178 °C; under `Cc1nc(N2CCC(CC3CC3)C2=O)sc1C(=O)NCc1ccc(F)cc1` (stereo not shown) [Example 3, 2-(3-(cyclopropylmethyl)-2-oxopyrrolidin-1-yl)-N-(4-fluorobenzyl)-4-methylthiazole-5-carboxamide], 153 to 155 °C.
In turn, `Cc1nc(N2CCCC(CCc3ccccc3)C2=O)sc1C(=O)NCc1ccccc1` (stereo not shown) [Example 3.1, N-benzyl-4-methyl-2-(2-oxo-3-phenethylpiperidin-1-yl)thiazole-5-carboxamide] yielded a melting point of 124 to 126 °C.
Next, `Cc1nc(N2CCCC(CCCc3ccccc3)C2=O)sc1C(=O)NCc1ccccc1` (stereo not shown) [Example 3.2, N-benzyl-4-methyl-2-(2-oxo-3-(3-phenylpropyl)piperidin-1-yl)thiazole-5-carboxamide]: 140 to 141 °C.
Next, `Cc1nc(N2CCC(NCCC3CC3)C2=O)sc1C(=O)NCc1ccc(F)cc1` (stereo not shown) [Example 5, 2-(3-(2-cyclopropylethylamino)-2-oxopyrrolidin-1-yl)-N-(4-fluorobenzyl)-4-methylthiazole-5-carboxamide]: 151 to 152 °C.
Under `Cc1nc(N2CCC(NCc3ccc(F)cc3)C2=O)sc1C(=O)NCc1ccc(F)cc1` (stereo not shown) [Example 5.1, N-(4-fluorobenzyl)-2-(3-(4-fluorobenzylamino)-2-oxopyrrolidin-1-yl)-4-methylthiazole-5-carboxamide] stands 123 to 124 °C; under `Cc1nc(N2CCC(NCCC(F)(F)F)C2=O)sc1C(=O)NCc1ccc(F)cc1` (stereo not shown) [Example 5.2, N-(4-fluorobenzyl)-4-methyl-2-(2-oxo-3-(3,3,3-trifluoropropylamino)pyrrolidin-1-yl)thiazole-5-carboxamide], 142 to 143 °C; under `Cc1nc(N2CCCC(NCc3ccc(C(F)(F)F)cc3)C2=O)sc1C(=O)NCc1ccccc1` (stereo not shown) [Example 5.3, N-benzyl-4-methyl-2-(2-oxo-3-(4-(trifluoromethyl)benzylamino)piperidin-1-yl)thiazole-5-carboxamide], 39 to 40 °C.
In turn, `Cc1nc(N2CCCC(NCC3CC3)C2=O)sc1C(=O)NCc1ccccc1` (stereo not shown) [Example 5.4, N-benzyl-2-(3-(cyclopropylmethylamino)-2-oxopiperidin-1-yl)-4-methylthiazole-5-carboxamide] yielded a melting point of 125 to 126 °C.
Under `Cc1nc(N2CC(Cc3ccccc3)CC2=O)sc1C(=O)NCc1ccccc1` (stereo not shown) [Example 6, N-benzyl-2-(4-benzyl-2-oxopyrrolidin-1-yl)-4-methylthiazole-5-carboxamide] stands 143 to 144 °C; under `Cc1nc(N2C[C@@H](O)CC2=O)sc1C(=O)NCc1ccccc1` [Example 7, (S)-N-benzyl-2-(4-hydroxy-2-oxopyrrolidin-1-yl)-4-methylthiazole-5-carboxamide], 203 to 204 °C.
Next, `Cc1nc(N2C[C@H](O)CC2=O)sc1C(=O)NCc1ccccc1` [Example 7.1, (R)-N-benzyl-2-(4-hydroxy-2-oxopyrrolidin-1-yl)-4-methylthiazole-5-carboxamide]: 203 to 204 °C; `Cc1nc(N2CCC(Cc3ccc(F)cc3)C2=O)sc1C(=O)NCc1cccnc1` (stereo not shown) [Example 8, 2-(3-(4-fluorobenzyl)-2-oxopyrrolidin-1-yl)-4-methyl-N-(pyridin-3-ylmethyl)thiazole-5-carboxamide]: 169 to 170 °C.
Next, `Cc1nc(N2CCC(Cc3ccc(OC(F)(F)F)cc3)C2=O)sc1C(=O)NCc1cccnc1` (stereo not shown) [Example 8.1, 4-methyl-2-(2-oxo-3-(4-(trifluoromethoxy)benzyl)pyrrolidin-1-yl)-N-(pyridin-3-ylmethyl)thiazole-5-carboxamide]: 158 to 160 °C.
Molecule `Cc1nc(N2CCCC(C(O)c3ccccc3)C2=O)sc1C(=O)NCc1ccccc1` (stereo not shown) [Example 10, N-benzyl-2-(3-(hydroxy(phenyl)methyl)-2-oxopiperidin-1-yl)-4-methylthiazole-5-carboxamide] returned a melting point of 74 to 75 °C.
For `CCc1ccc(/C=C2\CCCN(c3nc(C)c(C(=O)NCc4ccccc4)s3)C2=O)s1` [Example 10.1, N-benzyl-2-(3-((5-ethylthiophen-2-yl)methylene)-2-oxopiperidin-1-yl)-4-methylthiazole-5-carboxamide], the melting point fell in the range of 171 to 172 °C.
Under `Cc1nc(N2CCC/C(=C\c3cccnc3)C2=O)sc1C(=O)NCc1ccccc1` [Example 10.2, N-benzyl-4-methyl-2-(2-oxo-3-(pyridin-3-ylmethylene)piperidin-1-yl)thiazole-5-carboxamide] stands 206 to 208 °C; under `Cc1nc(N2CCCC(Cc3cccnc3)C2=O)sc1C(=O)NCc1ccccc1` (stereo not shown) [Example 11, N-benzyl-4-methyl-2-(2-oxo-3-(pyridin-3-ylmethyl)piperidin-1-yl)thiazole-5-carboxamide], 140 to 141 °C.

Values taken from US8236835B2, “Heterocyclic inhibitors of stearoyl-CoA desaturase” (Novartis AG, priority 2006, dated 2012).
